These results are taken from patent US20030004131A1, “OENOTHEIN MEDICAMENTS” (priority 1999, published 2003).

Assay [1] in a line: xanthine oxidase/acetaldehyde spectrophotometric superoxide radical scavenging method. The format is biochemical. On the procedure:
The scavenging of free superoxide radicals is quantitated spectrometrically and expressed in terms of percentage of radicals scavenged. Assays were performed with 1% (w/v) and 0.1% (w/v) dilutions of the dried extract, which yielded up to 100% scavenging activity and up to 99% scavenging activity respectively.

Assay [2] relates to hen's-egg chorioallantoic membrane (CAM). Put plainly: hen's-egg chorioallantoic membrane (CAM) irritation model with 15% lactic acid as standard irritant. The assay is classed as in vivo. Conditions: CAM treated with 15% lactic acid; sample applied before the irritant (prophylactic use); oenothein-B tested at 1% (weight to volume) dilution. On the procedure:
In the hen's-egg chorioallantoic membrane (CAM) model, in which the CAM is treated with 15% lactic acid as a standard irritant, the development of manifestations of membrane irritation were tracked and scored according to published methods for assessing irritancy (Luepke and Kemper, 1986, Food and Chemical Toxicology 24:495; Spielmann et al. 1997, Food and Chemical Toxicology 35:39). A sample of the oenothein-B extract from Canadian Willowherb described in Example 1 was tested at a 1% (weight to volume) dilution for activity in the CAM model.

Regarding oenothein-B, the “scavenging activity (percentage of radicals scavenged)” value in assay [1] (0.1% (w/v) dilution of the dried extract) is given as “up to 99%”; in assay [1] (1% (w/v) dilution of the dried extract), “up to 100%”. The decrease in irritation entry in assay [2] is reported as “up to 70%”.
